Data set [1] is classed as in vivo, human.
Data set [2] deals with T1, MATE2K (Homo sapiens, UniProt Q86VL8). Put plainly: In vitro transporter inhibition: MATE2K. To be noted: data on file at Gilead Sciences, Inc. The class given is in vitro ADME.
For data set [3], the system named is breast cancer resistance protein. Conditions: in vitro; at clinically relevant concentrations; cited from earlier work.
Data set [4] concerns organic anion transporter 1. To be noted: in vitro; at clinically relevant concentrations; cited from earlier work.
For data set [5], the target named is T1, MATE2K. To be noted: in vitro; cited from earlier work.
Where [6] appears, read: study 2, filgotinib 200 mg after multiple doses of rifampin 600 mg vs alone.
Setting [7] is: study 2, filgotinib + rifampin vs filgotinib alone.

Read-outs that look alike come from different tables or passages of the source.

T1 sequence (Q86VL8 1-566 isoform Q86VL8-3): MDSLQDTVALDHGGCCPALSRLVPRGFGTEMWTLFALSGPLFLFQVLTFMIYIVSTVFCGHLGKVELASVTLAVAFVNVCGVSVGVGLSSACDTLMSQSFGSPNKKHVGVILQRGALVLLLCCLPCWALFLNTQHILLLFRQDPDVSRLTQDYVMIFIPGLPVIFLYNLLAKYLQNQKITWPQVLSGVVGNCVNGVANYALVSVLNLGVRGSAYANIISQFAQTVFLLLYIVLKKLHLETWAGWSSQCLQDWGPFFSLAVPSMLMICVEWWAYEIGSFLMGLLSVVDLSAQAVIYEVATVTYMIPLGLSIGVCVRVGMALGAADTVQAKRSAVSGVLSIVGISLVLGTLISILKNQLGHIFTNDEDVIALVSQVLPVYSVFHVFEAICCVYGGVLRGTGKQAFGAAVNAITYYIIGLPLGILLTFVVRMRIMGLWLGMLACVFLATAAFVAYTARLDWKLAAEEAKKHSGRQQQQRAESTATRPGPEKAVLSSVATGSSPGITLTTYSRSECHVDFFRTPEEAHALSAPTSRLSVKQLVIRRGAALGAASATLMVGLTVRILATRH

The Tmax is the time from dosing to the highest level. The term half-life denotes the time in which the quantity being followed falls by half. What is called AUC(0-inf) is total exposure, with the tail of the curve extrapolated. The low end stands for less exposure, the high end for more exposure. In general, AUC(0-t) refers to exposure summed from dosing to a finite time, without extrapolation to infinity. Low readings indicate low exposure, high ones high exposure. Usually Cmax stands for the highest concentration seen after dosing. In the case of `O=C(Nc1nc2cccc(-c3ccc(CN4CCS(=O)(=O)CC4)cc3)n2n1)C1CC1` [Filgotinib], in data set [1] (human, plasma, oral), the Tmax came to 1.5 h and the half-life was 7.7 h. Also, in data set [1] (human, plasma, oral, 200 mg), the area under the curve AUC(0-inf) was determined as 6960 ng·h/mL, the AUC(0-t) worked out at 6980 ng·h/mL, the Cmax was determined as 2190 ng/mL and the Tmax was 1 h. The half-life in data set [1] (human, plasma, oral, 200 mg) is 8.4 h. Besides, in data set [1] (setting [6]), the “reduction in AUCinf by rifampin” value was 27% and the “reduction in C max by rifampin” value was 26%. Also, in data set [1] (setting [7]), the “AUCinf %GLSM ratio (90% CI)” value is listed as 72.7 (69.1, 76.5) % and the “AUClast %GLSM ratio (90% CI)” value is given as 72.7 (69.1, 76.5) %. The “effect of rifampin on T max and t 1/2 (in words)” value in data set [1] (study 2, filgotinib: T max and t 1/2, GS‐829845: Tmax) was “similar”. Further, the CL/F in data set [1] (study 2, single filgotinib 200 mg alone, mean (%CV), N = 14) is listed as 30.1 (21.0) L/h. For the same molecule, the “inhibition of MATE2K (in words)” value against MATE2K [2] (in vitro data) is listed as “may inhibit”. The “ratio of maximum unbound plasma concentration over in vitro IC50 against MATE2K” value on MATE2K [2] (patients with rheumatoid arthritis) came out at 0.44. For the same molecule, the “inhibition of breast cancer resistance protein” value in data set [3] was “not inhibitors”. For the same molecule, the “inhibition of organic anion transporter 1” value in data set [4] is reported as “not inhibitors”. Besides, the “inhibition of MATE2K” value at MATE2K [5] is recorded as “inhibited”.
